According to patent US10827758B2, “Relating to water treatment” (BWA WATER ADDITIVES UK LIMITED, priority 2014, dated 2020):

Columns and labels:
Enterobacter aerogenes = test: Log 10 Reduction of facultative anaerobic bacterium in dosed bacterial suspension (serial dilution into anaerobic acid producing media vials); assay type: cell-based; details: TDS 30,000 mg l^-1, ppm dose per Example, 8 = complete kill
Procedure: (§1) A suspension of Desulfovibrio vulgaris plus Enterobacter aerogenes bacteria containing from 1×10^6 to 1×10^8 cells/mL was prepared in sterile pH 8 phosphate buffer containing varying levels of sodium chloride to give the desired total dissolved solids (TDS) concentration. Aliquots of this suspension were dosed with the indicated concentrations of the phosphonium compound (a) and stabilised halogen containing composition (b) with the concentrations being measured as ppm by weight of the stated composition in the dosed suspension. The mixtures were allowed to stand at room temperature. At the designated contact times, each mixture was sampled to determine the total number of viable cells of both Desulfovibrio vulgaris and Enterobacter aerogenes by serial 10-fold dilution into API RP 38 media vials and anaerobic acid producing media vials, respectively. The vials were incubated at 37° C. for 72 hours. Results were recorded as cells per millilitre.
(§2) Aqueous media inoculated with anaerobe and aerobe culture and having a TDS of 30,000 mg l^−1 was treated with treatment agents comprising: (i) stabilised halogen containing composition; (ii) tri n-butyl n-tetradecyl phosphonium chloride (TTPC) or (iii) a combination of stabilised halogen containing composition and TTPC.
(§3) The efficacy of the treatment agents was evaluated by measuring the Log 10 Reduction of the anaerobic bacterium Desulfovibrio vulgaris and the facultative anaerobeic bacterium Enterobacter aerogenes after contact times of 1 hour, 4 hours and 24 hours as detailed in Table 1. For TTPC the stated ppm value relates to the amount of TTPC added (active). For the stabilised bromine composition the stated ppm relates to the amount of Bromax 7.1 added (product)
(§4) A Log 10 reduction of 6 represents a complete kill for anaerobes and a Log 10 reduction of 8 represents a complete kill for facultative anaerobes.

Desulfovibrio vulgaris = test: Log 10 Reduction of anaerobic bacterium in dosed bacterial suspension (serial dilution into API RP 38 media vials); assay type: cell-based; details: TDS 30,000 mg l^-1, ppm dose per Example, 6 = complete kill
Procedure: as §1, §2, §3, §4

Row | Compound | Log10 Reduction Facultative Anaerobes (Enterobacter aerogenes; contact time 1 hour) | Log10 Reduction Anaerobes (Desulfovibrio vulgaris; contact time 1 hour) | Log10 Reduction Facultative Anaerobes (Enterobacter aerogenes; contact time 24 hours) | Log10 Reduction Anaerobes (Desulfovibrio vulgaris; contact time 24 hours) | also measured
1 | CCCCCCCCCCCCCC[P+](CCCC)(CCCC)CCCC.[Cl-] [Example 1, tri n-butyl n-tetradecyl phosphonium chloride] | 1 | 3 |  |  | 
2 | CCCCCCCCCCCCCC[P+](CCCC)(CCCC)CCCC.[Cl-] [Example 2, tri n-butyl n-tetradecyl phosphonium chloride] | 4 | 6 |  |  | 
3 | CCCCCCCCCCCCCC[P+](CCCC)(CCCC)CCCC.[Cl-] [Example 9, tri n-butyl n-tetradecyl phosphonium chloride] |  |  |  |  | Log10 Reduction Facultative Anaerobes (Enterobacter aerogenes; contact time 4 hours): 5; Log10 Reduction Anaerobes (Desulfovibrio vulgaris; contact time 4 hours): 6
4 | CCCCCCCCCCCCCC[P+](CCCC)(CCCC)CCCC.[Cl-] [Example 17, tri n-butyl n-tetradecyl phosphonium chloride] |  |  | 5 | 6 | 
5 | CCCCCCCCCCCCCC[P+](CCCC)(CCCC)CCCC.[Cl-] [Example 18, tri n-butyl n-tetradecyl phosphonium chloride] |  |  | 8 | 6 | 
